Measurements taken from paper PMC12080312 (2025).

Experiments:
[1] = tested on: N1MA1a (DNA, aptamer) GACGACACATAATTGTTGATCCACTGTTTATTAGGTGTCGTC; assay: ITC; settings: 500 mM Na+, 20 mM Mg2+; 50 mM Tris, pH 7.6, 25 °C; abstract prints 0.75 ± 0.04
[2] = tested on: N1MA2a (DNA, aptamer) GACGACAAGGTTGCTGGTCTGGTACAGAGATAGTTCGTCGTC; assay: ITC; settings: 500 mM Na+, 20 mM Mg2+; 50 mM Tris, pH 7.6, 25 °C
[3] = tested on: AdeApt (classical adenosine aptamer) (DNA, aptamer) ACCTGGGGGAGTATTGCGGAGGAAGGT; assay: ThT fluorescence displacement; settings: 500 mM Na+, 20 mM Mg2+; Kd could not be fitted; 50 mM Tris, pH 7.6; ThT tracer

Kd [1]: 0.75 ± 0.07 µM | Kd [2]: 7.3 ± 7.5 µM | binding [3]: weak
SMILES: Cn1cnc2c(ncn2[C@@H]2O[C@H](CO)[C@@H](O)[C@H]2O)c1=N
